Laboratory results as given in patent publication US20240116985A1, “STAPLED PEPTIDES AND METHODS THEREOF” (priority 2020, published 2024).
pIC50: −log10 of the molar value. Like-named read-outs stand apart in the source and are kept apart here.

Assays:
[1] = target: T1, full-length beta-Catenin (Uniprot ID P35222) (Homo sapiens, UniProt P35222); experiment: Fluorescence polarization IC50 (beta-catenin / 5FAM-TCF4 10-53 competition); type: binding; settings: fluorescence polarization; read-out: beta-Catenin FP IC50
T1 construct: 10 nM full-length beta-Catenin (Uniprot ID P35222)
T1 sequence (P35222 1-781): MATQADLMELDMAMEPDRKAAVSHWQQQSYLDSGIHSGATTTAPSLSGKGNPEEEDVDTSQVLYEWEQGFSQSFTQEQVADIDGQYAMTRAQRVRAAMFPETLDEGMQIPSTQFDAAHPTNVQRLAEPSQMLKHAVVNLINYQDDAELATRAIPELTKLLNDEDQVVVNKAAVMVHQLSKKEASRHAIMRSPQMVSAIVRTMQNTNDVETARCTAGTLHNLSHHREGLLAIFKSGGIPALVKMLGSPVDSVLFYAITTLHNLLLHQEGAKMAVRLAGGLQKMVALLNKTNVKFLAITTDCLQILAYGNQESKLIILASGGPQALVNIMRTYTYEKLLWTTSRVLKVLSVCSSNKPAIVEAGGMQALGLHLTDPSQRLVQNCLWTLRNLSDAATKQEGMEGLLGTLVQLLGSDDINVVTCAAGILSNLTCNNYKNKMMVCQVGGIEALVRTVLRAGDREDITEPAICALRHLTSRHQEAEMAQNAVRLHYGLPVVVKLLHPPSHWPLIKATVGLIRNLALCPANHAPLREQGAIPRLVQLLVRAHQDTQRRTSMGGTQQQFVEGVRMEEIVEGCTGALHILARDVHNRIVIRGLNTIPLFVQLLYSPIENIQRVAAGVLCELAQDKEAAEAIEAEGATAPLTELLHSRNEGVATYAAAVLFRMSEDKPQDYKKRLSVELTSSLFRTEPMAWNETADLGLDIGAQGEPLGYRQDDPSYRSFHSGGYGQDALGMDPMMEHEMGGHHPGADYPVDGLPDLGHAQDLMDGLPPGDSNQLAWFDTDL

[2] = target: T2, beta-catenin/TCF4 engagement (Homo sapiens, UniProt P35222); experiment: Nano-BRET target engagement assay (B-cat-Halo & TCF4-Luc in HEK293 cells); type: cell-based; settings: read-out: NanoBRET Abs IC50
T2 construct: expressed in transfected cells; host or cells: HEK293
T2 sequence (P35222 1-781): T1 sequence (P35222 1-781)

Row | pIC50 [1] | pIC50 [2] | pIC50 ([2]; absolute IC50) | Structure (SMILES)
1 | 6.87 | < 4.70 |  | CC(=O)N1CCC[C@]12CC=CCCCC1(CCCC=CCCCOC(=O)N3CC[C@@](C(=O)N[C@@H](Cc4ccccc4Cl)C(=O)N[C@@H](Cc4csc5ccccc45)C(=O)N[C@@H](CO)C(N)=O)(C3)NC(=O)[C@H](CC(C)C)NC(=O)[C@H](Cc3ccccc3)NC(=O)[C@H](C)NC(=O)C(C)(C)NC(=O)[C@H](Cc3cccc(C(=O)O)c3)NC(=O)[C@H](CC(=O)O)NC1=O)NC(=O)[C@H](CC(C)(C)C)NC(=O)[C@H](CC(=O)O)NC2=O (stereo partly drawn) [I-1900, Ac-PL3-Asp-Npg-B5-Asp-3COOHF-Aib-Ala-Phe-Leu-PyrS2-2C1F-BztA-Ser-NH2]
2 | 7.80 |  | 5.40 | CC(=O)N1CCC[C@]12CC=CCCCC1(CCCC=CCCCOC(=O)N3CC[C@@](C(=O)N[C@@H](Cc4ccccc4C(F)(F)F)C(=O)N[C@@H](Cc4csc5ccccc45)C(=O)N[C@@H](CCC(=O)N4CCOCC4)C(N)=O)(C3)NC(=O)[C@H](CCC(=O)N(C)C)NC(=O)[C@H](Cc3ccccc3)NC(=O)[C@H](C)NC(=O)[C@H](C)NC(=O)[C@H](Cc3cccc(C(=O)O)c3)NC(=O)[C@H](CC(=O)O)NC1=O)NC(=O)[C@H](CC(C)(C)C)NC(=O)[C@H](CC(=O)O)NC2=O (stereo partly drawn) [I-2545, Ac-PL3-Asp-Npg-B5-Asp-3COOHF-Ala-Ala-Phe-Me2Gln-PyrS2-2F3MeF-BztA-MorphGln-NH2]
3 | 6.59 | < 4.70 |  | CC(=O)N1CCC[C@]12CC=CCCCC1(CCCC=CCCCOC(=O)N3CC[C@@](C(=O)N[C@@H](Cc4ccccc4C(F)(F)F)C(=O)N[C@@H](Cc4csc5ccccc45)C(=O)N[C@@H](C)C(N)=O)(C3)NC(=O)[C@H](CC(C)C)NC(=O)[C@H](Cc3ccccc3)NC(=O)[C@@H](C)NC(=O)[C@H](C)NC(=O)[C@H](Cc3cccc(C(=O)O)c3)NC(=O)[C@H](CC(=O)O)NC1=O)NC(=O)[C@H](CC(C)(C)C)NC(=O)[C@H](CC(=O)O)NC2=O (stereo partly drawn) [I-2098, Ac-PL3-Asp-Npg-B5-Asp-3COOHF-Ala-dAla-Phe-Leu-PyrS2-2F3MeF-BztA-Ala-NH2]
4 | 7.49 | 4.75 |  | CC(=O)N1CCC[C@]12CC=CCCCC1(CCCC=CCCCOC(=O)N3CC[C@@](C(=O)N[C@@H](Cc4ccccc4Cl)C(=O)N[C@@H](Cc4csc5ccccc45)C(=O)N[C@H](C(N)=O)C(C)C)(C3)NC(=O)[C@H](CO)NC(=O)[C@H](Cc3ccccc3)NC(=O)[C@H](C)NC(=O)[C@H](C)NC(=O)[C@H](Cc3cccc(C(=O)O)c3)NC(=O)[C@H](CC(=O)O)NC1=O)NC(=O)[C@H](CC(C)(C)C)NC(=O)[C@H](CC(=O)O)NC2=O (stereo partly drawn) [I-2028, Ac-PL3-Asp-Npg-B5-Asp-3COOHF-Ala-Ala-Phe-Ser-PyrS2-2C1F-BztA-Val-NH2]
5 | 7.51 |  | < 4.70 | CC(=O)N1CCC[C@]12CC=CCCCC1(CCCC=CCCCOC(=O)N3CC[C@@](C(=O)N[C@@H](Cc4ccccc4Cl)C(=O)N[C@@H](Cc4csc5ccccc45)C(=O)N[C@@H](C)CO)(C3)NC(=O)[C@H](CC(C)C)NC(=O)[C@H](Cc3ccccc3)NC(=O)[C@H](C)NC(=O)[C@H](C)NC(=O)[C@H](CC(=O)O)NC(=O)[C@H](CC(=O)O)NC1=O)NC(=O)[C@H](CC(C)(C)C)NC(=O)[C@H](CC(=O)O)NC2=O (stereo partly drawn) [I-1250, Ac-PL3-Asp-Npg-B5-Asp-Asp-Ala-Ala-Phe-Leu-PyrS2-2C1F-BztA-Alao1]

The next lines start with the compound.

Row | Structure (SMILES) | pIC50 [1] | pIC50 [2] | pIC50 ([2]; absolute IC50)
6 | CC(=O)N1CCC[C@]12CC1OC1CCCC1(CCCC=CCCCOC(=O)N3CC[C@@](C(=O)N[C@@H](Cc4ccsc4)C(=O)N[C@@H](Cc4csc5ccccc45)C(=O)N[C@@H](CCC(N)=O)C(N)=O)(C3)NC(=O)[C@H](CC(C)C)NC(=O)[C@H](Cc3ccccc3)NC(=O)[C@H](C)NC(=O)[C@H](C)NC(=O)[C@H](CN(CC(=O)O)CC(F)(F)F)NC(=O)[C@H](CC(=O)O)NC1=O)NC(=O)[C@H](CC(C)(C)C)NC(=O)[C@H](CC(=O)O)NC2=O (stereo partly drawn) [I-2595, Ac-PL3-Asp-Npg-B5-Asp-TfeGA-Ala-Ala-Phe-Leu-PyrS2-3Thi-BztA-Gln-NH2] | 6.45 | < 4.70 | 
7 | CC(=O)N1CCC[C@]12CC=CCCCC1(CCCC=CCCCOC(=O)N3CC[C@@](C(=O)N[C@@H](Cc4ccsc4)C(=O)N[C@@H](Cc4csc5ccccc45)C(=O)N[C@@H](CC(N)=O)C(=O)N[C@@H](C)C(=O)N[C@@H](CC(C)C)C(=O)N[C@@H](C)C(=O)N[C@@H](CC(C)C)C(=O)N[C@@H](C)C(N)=O)(C3)NC(=O)[C@H](CC(C)C)NC(=O)[C@H](Cc3ccccc3)NC(=O)[C@H](C)NC(=O)[C@H](C)NC(=O)[C@H](Cc3cccc(C(=O)O)c3)NC(=O)[C@H](CC(=O)O)NC1=O)NC(=O)[C@H](CC(C)(C)C)NC(=O)[C@H](CC(=O)O)NC2=O (stereo partly drawn) [I-2282, Ac-PL3-Asp-Npg-B5-Asp-3COOHF-Ala-Ala-Phe-Leu-PyrS2-3Thi-BztA-Asn-Ala-Leu-Ala-Leu-Ala-NH2] | 6.81 |  | 5.43
8 | CC(=O)N1CCC[C@]12CC=CCCCC1(CCCC=CCCCOC(=O)N3CC[C@@](C(=O)N[C@@H](Cc4ccccc4C(F)(F)F)C(=O)N[C@@H](Cc4csc5ccccc45)C(=O)N[C@@H](C)C(N)=O)(C3)NC(=O)[C@H](CC(C)C)NC(=O)[C@H](Cc3ccccc3)NC(=O)[C@H](C)NC(=O)[C@H](CCC(=O)N3CCC(N4CCCCC4)CC3)NC(=O)[C@H](Cc3cccc(C(=O)O)c3)NC(=O)[C@H](CC(=O)O)NC1=O)NC(=O)[C@H](CC(C)(C)C)NC(=O)[C@H](CC(=O)O)NC2=O (stereo partly drawn) [I-2317, Ac-PL3-Asp-Npg-B5-Asp-3COOHF-[4Pippip]GlnR-Ala-Phe-Leu-PyrS2-2F3MeF-BztA-Ala-NH2] | 7.92 |  | 4.73
9 | CC(=O)N1CCC[C@]12CC=CCCCC1(CCCC=CCCCOC(=O)N3CC[C@@](C(=O)N[C@@H](Cc4ccccc4Cl)C(=O)N[C@@H](Cc4csc5ccccc45)C(=O)N[C@H](CO)[C@@H](C)O)(C3)NC(=O)[C@H](CC(C)C)NC(=O)[C@H](Cc3ccccc3)NC(=O)[C@H](C)NC(=O)[C@H](C)NC(=O)[C@H](CC(=O)O)NC(=O)[C@H](CC(=O)O)NC1=O)NC(=O)[C@H](CC(C)(C)C)NC(=O)[C@H](CC(=O)O)NC2=O (stereo partly drawn) [I-1249, Ac-PL3-Asp-Npg-B5-Asp-Asp-Ala-Ala-Phe-Leu-PyrS2-2C1F-BztA-Thro1] | 7.77 |  | 4.60
10 | CC(=O)N1CCC[C@]12CC=CCCCC1(CCCC=CCCCOC(=O)N3CC[C@@](C(=O)N[C@@H](Cc4ccsc4)C(=O)N[C@@H](Cc4csc5ccccc45)C(=O)N[C@H](CCC(N)=O)C(N)=O)(C3)NC(=O)[C@H](Cc3ccccc3)NC(=O)[C@H](Cc3ccccc3)NC(=O)[C@H](C)NC(=O)[C@H](C)NC(=O)[C@H](Cc3cccc(C(=O)O)c3)NC(=O)[C@H](CC(=O)O)NC1=O)NC(=O)[C@H](CC(C)(C)C)NC(=O)[C@H](CC(=O)O)NC2=O (stereo partly drawn) [I-2092, Ac-PL3-Asp-Npg-B5-Asp-3COOHF-Ala-Ala-Phe-Phe-PyrS2-3Thi-BztA-dGln-NH2] | 7.82 | 5.36 | 
11 | CC(=O)N1CCC[C@]12CC=CCCCC1(CCCC=CCCCOC(=O)N3CC[C@@](C(=O)N[C@@H](Cc4ccsc4)C(=O)N[C@@H](Cc4csc5ccccc45)C(=O)N[C@@H](CCC(N)=O)C(N)=O)(C3)NC(=O)[C@H](CC(C)C)NC(=O)[C@H](Cc3ccccc3)NC(=O)[C@H](C)NC(=O)[C@H](C)NC(=O)[C@H](CNc3ccc([N+](=O)[O-])cc3C(=O)O)NC(=O)[C@H](CC(=O)O)NC1=O)NC(=O)[C@H](CC(C)(C)C)NC(=O)[C@H](CC(=O)O)NC2=O (stereo partly drawn) [I-1843, Ac-PL3-Asp-Npg-B5-Asp-[2COOH4NO2Ph]Dap-Ala-Ala-Phe-Leu-PyrS2-3Thi-BztA-Gln-NH2] | 7.49 |  | 5.02
12 | CC(=O)N1CCC[C@]12CC=CCCCC1(CCCC=CCCCOC(=O)N3CC[C@@](C(=O)N[C@@H](Cc4ccsc4)C(=O)N[C@@H](Cc4csc5ccccc45)C(=O)N[C@@H](CCC(N)=O)C(N)=O)(C3)NC(=O)[C@H](CCO)NC(=O)[C@H](Cc3ccccc3)NC(=O)[C@H](C)NC(=O)[C@H](C)NC(=O)[C@H](Cc3c(F)c(F)c(F)c(F)c3F)NC(=O)[C@H](CC(=O)O)NC1=O)NC(=O)[C@H](CC(C)(C)C)NC(=O)[C@H](CC(=O)O)NC2=O (stereo partly drawn) [I-1791, Ac-PL3-Asp-Npg-B5-Asp-Pff-Ala-Ala-Phe-Hse-PyrS2-3Thi-BztA-Gln-NH2] | 6.74 |  | < 4.70
13 | CCCC[C@@H]1NC(=O)[C@H](Cc2ccccc2)NC(=O)[C@H](C)NC(=O)[C@H](C)NC(=O)[C@H](Cc2cccc(C(=O)O)c2)NC(=O)[C@H](CC(=O)O)NC(=O)C2(CCCC=CCCCOC(=O)N3CC[C@@](C(=O)N[C@@H](Cc4ccsc4)C(=O)N[C@@H](Cc4csc5ccccc45)C(=O)N[C@@H](CCC(N)=O)C(N)=O)(C3)NC1=O)CCCC=CC[C@]1(CCCN1C(C)=O)C(=O)N[C@@H](CC(=O)O)C(=O)N[C@@H](CC(C)C)C(=O)N2 (stereo partly drawn) [I-1407, Ac-PL3-Asp-Leu-B5-Asp-3COOHF-Ala-Ala-Phe-nLeu-PyrS2-3Thi-BztA-Gln-NH2] | 8.30 |  | 5.38
